According to PubChem BioAssay (NCI):
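In this assay, cells in 96-well plates receive the compound at five concentrations for 48 hours. Endpoints are linearly interpolated between the surrounding concentrations. At the GI50, growth is halved. TGI denotes the concentration required for complete inhibition of growth.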

Key:
Experiment in all cases: NCI-60 cell line screen, 48 h
A549 NSCLC = system: A549 NSCLC
OVCAR-5 ovarian = system: OVCAR-5 ovarian
HCT-116 colon = system: HCT-116 colon
UACC-257 melanoma = system: UACC-257 melanoma
OVCAR-8 ovarian = system: OVCAR-8 ovarian
NCI-H460 lung = system: NCI-H460 lung
A498 renal = system: A498 renal
UO-31 renal = system: UO-31 renal
SF-295 CNS = system: SF-295 CNS
LOX IMVI melanoma = system: LOX IMVI melanoma
SW-620 colon = system: SW-620 colon
SK-MEL-28 melanoma = system: SK-MEL-28 melanoma
K-562 leukemia = system: K-562 leukemia
SN12C renal = system: SN12C renal
M14 melanoma = system: M14 melanoma
UACC-62 melanoma = system: UACC-62 melanoma
SR leukemia = system: SR leukemia
SK-MEL-2 melanoma = system: SK-MEL-2 melanoma
MOLT-4 leukemia = system: MOLT-4 leukemia
U251 CNS = system: U251 CNS
786-0 renal = system: 786-0 renal
TK-10 renal = system: TK-10 renal
NCI/ADR-RES ovarian = system: NCI/ADR-RES ovarian
CCRF-CEM leukemia = system: CCRF-CEM leukemia
SF-539 CNS = system: SF-539 CNS
MALME-3M melanoma = system: MALME-3M melanoma
ACHN renal = system: ACHN renal
HCT-15 colon = system: HCT-15 colon
CAKI-1 renal = system: CAKI-1 renal
HOP-92 NSCLC = system: HOP-92 NSCLC
MCF7 breast = system: MCF7 breast
SF-268 CNS = system: SF-268 CNS
NCI-H226 lung = system: NCI-H226 lung
RPMI-8226 leukemia = system: RPMI-8226 leukemia
COLO 205 colon = system: COLO 205 colon
KM12 colon = system: KM12 colon
SK-MEL-5 melanoma = system: SK-MEL-5 melanoma
HS 578T breast = system: HS 578T breast
HOP-62 NSCLC = system: HOP-62 NSCLC
HL-60(TB) leukemia = system: HL-60(TB) leukemia
IGROV1 ovarian = system: IGROV1 ovarian
NCI-H522 lung = system: NCI-H522 lung
MDA-MB-231 breast = system: MDA-MB-231 breast
SNB-75 CNS = system: SNB-75 CNS
OVCAR-3 ovarian = system: OVCAR-3 ovarian
HT29 colon = system: HT29 colon
DU-145 prostate = system: DU-145 prostate
NCI-H23 lung = system: NCI-H23 lung
SNB-19 CNS = system: SNB-19 CNS
SK-OV-3 ovarian = system: SK-OV-3 ovarian
HCC-2998 colon = system: HCC-2998 colon
OVCAR-4 ovarian = system: OVCAR-4 ovarian
PC-3 prostate = system: PC-3 prostate
T-47D breast = system: T-47D breast

SMILES: COc1cc([C@@H]2c3cc4c(cc3[C@@H](Nc3ccc(C(=O)N[C@H]5CCc6cc(OC)c(OC)c(OC)c6-c6ccc(SC)c(=O)cc65)cc3)[C@H]3COC(=O)[C@H]23)OCO4)cc(OC)c1O
- TGI (A549 NSCLC): > 100 µM
- TGI (OVCAR-5 ovarian): > 100 µM
- TGI (HCT-116 colon): > 100 µM
- TGI (UACC-257 melanoma): > 100 µM
- TGI (OVCAR-8 ovarian): > 100 µM
- TGI (NCI-H460 lung): 14.2 µM
- TGI (A498 renal): 21.8 µM
- TGI (UO-31 renal): 86.4 µM
- TGI (SF-295 CNS): > 100 µM
- TGI (LOX IMVI melanoma): > 100 µM
- TGI (SW-620 colon): 49.1 µM
- TGI (SK-MEL-28 melanoma): > 100 µM
- TGI (K-562 leukemia): > 100 µM
- TGI (SN12C renal): 16.4 µM
- TGI (M14 melanoma): 52.2 µM
- TGI (UACC-62 melanoma): 17.2 µM
- TGI (SR leukemia): 0.149 µM
- TGI (SK-MEL-2 melanoma): 15.1 µM
- TGI (MOLT-4 leukemia): 10.9 µM
- TGI (U251 CNS): 15.2 µM
- TGI (786-0 renal): 19.7 µM
- TGI (TK-10 renal): > 100 µM
- TGI (NCI/ADR-RES ovarian): 17.3 µM
- TGI (CCRF-CEM leukemia): 16.1 µM
- TGI (SF-539 CNS): > 100 µM
- TGI (MALME-3M melanoma): 15.1 µM
- TGI (ACHN renal): 22.2 µM
- TGI (HCT-15 colon): > 100 µM
- TGI (CAKI-1 renal): 13.4 µM
- TGI (HOP-92 NSCLC): 19.3 µM
- TGI (MCF7 breast): 83 µM
- TGI (SF-268 CNS): > 100 µM
- TGI (NCI-H226 lung): > 100 µM
- TGI (RPMI-8226 leukemia): 38.8 µM
- TGI (COLO 205 colon): 12.7 µM

SMILES: Cc1ccc(NC(=O)c2sc3nc4c(cc3c2N)C(=O)CCC4)cc1C
- GI50 (KM12 colon): 0.486 µM
- TGI (KM12 colon): > 100 µM
- GI50 (SK-MEL-5 melanoma): 0.418 µM
- TGI (SK-MEL-5 melanoma): 21.6 µM
- GI50 (A549 NSCLC): 0.704 µM
- TGI (A549 NSCLC): > 100 µM
- GI50 (OVCAR-5 ovarian): 3.16 µM
- TGI (OVCAR-5 ovarian): > 100 µM
- GI50 (HS 578T breast): 0.442 µM
- TGI (HS 578T breast): > 100 µM
- GI50 (HCT-116 colon): 0.546 µM
- TGI (HCT-116 colon): > 100 µM
- GI50 (UACC-257 melanoma): 21.6 µM
- TGI (UACC-257 melanoma): > 100 µM
- GI50 (OVCAR-8 ovarian): 3.45 µM
- TGI (OVCAR-8 ovarian): > 100 µM
- GI50 (NCI-H460 lung): 0.399 µM
- TGI (NCI-H460 lung): > 43.5 µM
- GI50 (HOP-62 NSCLC): 0.733 µM
- TGI (HOP-62 NSCLC): > 100 µM
- GI50 (A498 renal): 0.198 µM
- TGI (A498 renal): 0.658 µM
- GI50 (HL-60(TB) leukemia): 0.36 µM
- TGI (HL-60(TB) leukemia): 1.72 µM
- GI50 (UO-31 renal): 1.81 µM
- TGI (UO-31 renal): > 100 µM
- GI50 (SF-295 CNS): 0.358 µM
- TGI (SF-295 CNS): > 100 µM
- GI50 (LOX IMVI melanoma): 0.837 µM
- TGI (LOX IMVI melanoma): > 100 µM
- GI50 (IGROV1 ovarian): 2.2 µM
- TGI (IGROV1 ovarian): > 100 µM
- GI50 (SW-620 colon): 0.417 µM
- TGI (SW-620 colon): > 100 µM
- GI50 (SK-MEL-28 melanoma): 1.86 µM
- TGI (SK-MEL-28 melanoma): > 100 µM
- GI50 (K-562 leukemia): 0.468 µM
- TGI (K-562 leukemia): 35 µM
- GI50 (SN12C renal): 0.797 µM
- TGI (SN12C renal): > 100 µM
- GI50 (NCI-H522 lung): 0.276 µM
- TGI (NCI-H522 lung): 4.88 µM
- GI50 (MDA-MB-231 breast): 1.65 µM
- TGI (MDA-MB-231 breast): > 100 µM
- GI50 (M14 melanoma): 0.602 µM
- TGI (M14 melanoma): > 100 µM
- GI50 (SNB-75 CNS): 0.313 µM
- TGI (SNB-75 CNS): > 100 µM
- GI50 (UACC-62 melanoma): 0.496 µM
- TGI (UACC-62 melanoma): > 100 µM
- GI50 (SR leukemia): 0.499 µM
- TGI (SR leukemia): 26.8 µM
- GI50 (OVCAR-3 ovarian): 0.345 µM
- TGI (OVCAR-3 ovarian): 1.6 µM
- GI50 (SK-MEL-2 melanoma): 0.464 µM
- TGI (SK-MEL-2 melanoma): > 100 µM
- GI50 (HT29 colon): 0.399 µM
- TGI (HT29 colon): 11.2 µM
- GI50 (MOLT-4 leukemia): 6.41 µM
- TGI (MOLT-4 leukemia): 76.2 µM
- GI50 (U251 CNS): 0.765 µM
- TGI (U251 CNS): > 56.7 µM
- GI50 (786-0 renal): 0.699 µM
- TGI (786-0 renal): > 100 µM
- GI50 (DU-145 prostate): 0.673 µM
- TGI (DU-145 prostate): > 100 µM
- GI50 (TK-10 renal): > 70 µM
- TGI (TK-10 renal): > 100 µM
- GI50 (NCI/ADR-RES ovarian): 0.784 µM
- TGI (NCI/ADR-RES ovarian): > 100 µM
- GI50 (CCRF-CEM leukemia): 0.377 µM
- TGI (CCRF-CEM leukemia): 97 µM
- TGI (MALME-3M melanoma): > 100 µM
- GI50 (ACHN renal): 1.42 µM
- TGI (ACHN renal): > 100 µM
- GI50 (HCT-15 colon): 0.556 µM
- TGI (HCT-15 colon): > 100 µM
- GI50 (CAKI-1 renal): 0.661 µM
- TGI (CAKI-1 renal): > 100 µM
- TGI (HOP-92 NSCLC): > 100 µM
- GI50 (NCI-H23 lung): 1.41 µM
- TGI (NCI-H23 lung): > 100 µM
- GI50 (SNB-19 CNS): 0.652 µM
- TGI (SNB-19 CNS): > 100 µM
- GI50 (MCF7 breast): 0.352 µM
- TGI (MCF7 breast): > 100 µM
- GI50 (SK-OV-3 ovarian): 0.533 µM
- TGI (SK-OV-3 ovarian): > 100 µM
- GI50 (HCC-2998 colon): 1.96 µM
- TGI (HCC-2998 colon): > 100 µM
- GI50 (OVCAR-4 ovarian): 1.13 µM
- TGI (OVCAR-4 ovarian): > 100 µM
- GI50 (PC-3 prostate): 0.607 µM
- TGI (PC-3 prostate): > 100 µM
- GI50 (T-47D breast): 0.533 µM
- TGI (T-47D breast): > 73.2 µM
- GI50 (SF-268 CNS): 4.47 µM
- TGI (SF-268 CNS): > 100 µM
- GI50 (NCI-H226 lung): 27.3 µM
- TGI (NCI-H226 lung): > 100 µM
- GI50 (RPMI-8226 leukemia): 1.57 µM
- TGI (RPMI-8226 leukemia): > 30.4 µM
- GI50 (COLO 205 colon): 0.309 µM
- TGI (COLO 205 colon): 0.936 µM
